Measurements taken from patent US12403150B2, “Tryptamine compositions for enhancing neurite outgrowth” (priority 2019, dated 2025).
“Also recorded” adds a separate entry of the source. Where two headings read alike, the source gives them in different places.

How the values were obtained:
[1] = test system: PC12 cells treated with conditioned media from 1321N1 cells; test: Neurite outgrowth of PC12 cells treated with conditioned media from 1321N1 cells; format: cell-based, rat; conditions: conditioned media from treated 1321N1 human astrocytoma cells; n=3
Source text: 1321N1 human brain astrocytoma cells are known to excrete neurologically beneficial compounds when stimulated with neurotrophic compounds and fungal extracts including lion's mane (Mori et al., Biological and Pharmaceutical Bulletin, 9:1727-1732 (2008)). While some fungi have well established mechanisms by which they benefit neurological health, little is known about the role of psilocybin analogs specifically. Generally following the protocol of Mori et al., 2008, 1321N1 human astrocytoma cells were treated with psilocybin analogs, and conditioned media was collected and applied to differentiated rat pheochromocytoma PC12 cells to determine the resulting impact on neurite outgrowth.

IL-10 = test: ELISA of IL-10 in human 1321N1 brain cells; format: cell-based
Source text: (§1) See Ly et al., “Psychedelics Promote Structural and Functional Neural Plasticity,” Cell Rep.

[2] = test system: Rat Induced Pluripotent Stem Cell (iPSC) Neuron Culture / cortical neurons from rat embryo; format: cell-based; conditions: for Neurite length per neuron, % of control, Avg. / Neurite length per neuron, Length (μm), Avg. / Neurites per neuron, % of control, Avg. / Neurites per neuron, Number, Avg.: day 10
Description: Experiments were conducted to evaluate the neurotrophic effects of several purified tryptamines, H. erinaceum extracts, and the tryptamines combined with selected extracts of H. erinaceum. The tryptamines, baeocystin, norbaeocystin, and norpsilocin, were evaluated at final concentrations of 0.3 μg/mL, 1 μg/mL, 3 μg/mL, and 10 μg/mL. The experiments analyzed the H. erinaceum growth medium (rice or rice and oat hull fiber), the days of cultivation, the extract solvent (water, ethanol, or ethyl acetate), and the final concentration of the extract (31.3 μg/mL, 62.5 μg/mL, 125 μg/mL or 250 μg/mL). Finally, combinations of the three tryptamines and representative H. erinaceum extracts were combined and evaluated.
Rat Induced Pluripotent Stem Cell (iPSC) Neuron Culture
The following protocol was performed for each independent culture. Six culture experiments were performed for each condition.
Results are expressed as mean (±Standard Deviation).

hallucinogenic effects = conditions: cited from earlier work
[3] = test system: nerve growth factor (NGF) protein; test: ELISA of NGF protein in human 1321N1 brain cells; format: cell-based; conditions: human 1321N1 cells, compared to a vehicle control; n=3; p<0.05
Source text: Accordingly, preliminary research has started to reveal the mechanisms by which psilocybin analogs may confer neurotrophic benefits that facilitate neurite outgrowth.
as §1

[4] = test system: inflammation in the lungs; conditions: in vivo; cited from earlier work
5-HT2A receptor = 5-HT2A receptor (Homo sapiens, UniProt P28223); conditions: cited from earlier work
Sequence of 5-HT2A receptor (P28223 whole entry): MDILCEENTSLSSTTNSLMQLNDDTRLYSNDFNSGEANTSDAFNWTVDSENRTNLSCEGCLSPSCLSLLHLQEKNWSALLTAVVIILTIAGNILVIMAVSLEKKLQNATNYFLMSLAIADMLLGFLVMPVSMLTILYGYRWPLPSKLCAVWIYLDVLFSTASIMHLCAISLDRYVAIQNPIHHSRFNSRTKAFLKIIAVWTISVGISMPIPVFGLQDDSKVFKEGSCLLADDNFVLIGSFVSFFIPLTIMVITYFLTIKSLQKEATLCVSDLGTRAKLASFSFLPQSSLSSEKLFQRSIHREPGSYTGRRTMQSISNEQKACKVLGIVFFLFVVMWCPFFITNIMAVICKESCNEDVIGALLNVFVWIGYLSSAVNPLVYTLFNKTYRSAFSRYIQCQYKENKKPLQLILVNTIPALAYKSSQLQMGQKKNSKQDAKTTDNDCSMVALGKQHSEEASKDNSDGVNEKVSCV

## CNCCc1c[nH]c2cccc(O)c12 [norpsilocin, 4-hydroxy-N-methyl-tryptamine]
[1]
  neurite outgrowth in PC12 cells by conditioned media: induce neurite outgrowth
IL-10
  expression of the anti-inflammatory cytokine IL-10: induces the expression
[2]; at the concentrations tested
  neurite outgrowth compared with vehicle control and other treatments, in words: did not perform better than vehicle control
[2]; tryptamine 0.3 μg/mL
  Neurite length per neuron, % of control, Avg.: 107.70 % of control
  Neurite length per neuron, Length (μm), Avg.: 344.09 μm
  Neurites per neuron, % of control, Avg.: 83.77 % of control
  Neurites per neuron, Number, Avg.: 2.80
[2]; tryptamine 1 μg/mL
  Neurite length per neuron, % of control, Avg.: 101.13 % of control
  Neurite length per neuron, Length (μm), Avg.: 347.25 μm
  Neurites per neuron, % of control, Avg.: 87.18 % of control
  Neurites per neuron, Number, Avg.: 2.91
[2]; tryptamine 3 μg/mL
  Neurite length per neuron, % of control, Avg.: 73.80 % of control
  Neurite length per neuron, Length (μm), Avg.: 253.40 μm
  Neurites per neuron, % of control, Avg.: 79.36 % of control
  Neurites per neuron, Number, Avg.: 2.65
[2]; tryptamine 10 μg/mL
  Neurite length per neuron, % of control, Avg.: 7.65 % of control
  Neurite length per neuron, Length (μm), Avg.: 26.28 μm
  Neurites per neuron, % of control, Avg.: 27.71 % of control
  Neurites per neuron, Number, Avg.: 0.92

## CNCCc1c[nH]c2cccc(OP(=O)(O)O)c12 [baeocystin, 4-phosphoryloxy-N-methyltryptamine]
[1]
  neurite outgrowth in PC12 cells by conditioned media: induce neurite outgrowth
Hallucinogenic effects; 4 mg, anecdotal experience
  hallucinogenic effects after consumption: gentle hallucinogenic experience
Hallucinogenic effects; 10 mg and 20 mg, case studies
  hallucinogenic effects after oral consumption: did not produce any hallucinogenic effects
[2]; tryptamine 0.3 μg/mL
  Neurite length per neuron, % of control, Avg.: 119.24 % of control
  Neurite length per neuron, Length (μm), Avg.: 418.30 μm
  Neurites per neuron, % of control, Avg.: 94.46 % of control
  Neurites per neuron, Number, Avg.: 2.99
[2]; tryptamine 1 μg/mL
  Neurite length per neuron, % of control, Avg.: 112.34 % of control
  Neurite length per neuron, Length (μm), Avg.: 394.11 μm
  Neurites per neuron, % of control, Avg.: 93.66 % of control
  Neurites per neuron, Number, Avg.: 2.96
[2]; tryptamine 3 μg/mL
  Neurite length per neuron, % of control, Avg.: 118.42 % of control
  Neurite length per neuron, Length (μm), Avg.: 415.42 μm
  Neurites per neuron, % of control, Avg.: 97.18 % of control
  Neurites per neuron, Number, Avg.: 3.07
[2]; tryptamine 10 μg/mL
  Neurite length per neuron, % of control, Avg.: 109.61 % of control
  Neurite length per neuron, Length (μm), Avg.: 384.52 μm
  Neurites per neuron, % of control, Avg.: 96.87 % of control
  Neurites per neuron, Number, Avg.: 3.06

## NCCc1c[nH]c2cccc(OP(=O)(O)O)c12 [norbaeocystin, 4-phosphoryloxy-tryptamine]
[1]
  neurite outgrowth in PC12 cells by conditioned media: induce neurite outgrowth
[3]
  expression of NGF protein: increased expression of NGF protein; also recorded: induces the expression
[2]; tryptamine 0.3 μg/mL
  Neurite length per neuron, % of control, Avg.: 128.69 % of control
  Neurite length per neuron, Length (μm), Avg.: 441.86 μm
  Neurites per neuron, % of control, Avg.: 92.67 % of control
  Neurites per neuron, Number, Avg.: 3.09
[2]; tryptamine 1 μg/mL
  Neurite length per neuron, % of control, Avg.: 127.25 % of control
  Neurite length per neuron, Length (μm), Avg.: 436.93 μm
  Neurites per neuron, % of control, Avg.: 91.64 % of control
  Neurites per neuron, Number, Avg.: 3.06
[2]; tryptamine 3 μg/mL
  Neurite length per neuron, % of control, Avg.: 112.13 % of control
  Neurite length per neuron, Length (μm), Avg.: 385.00 μm
  Neurites per neuron, % of control, Avg.: 87.02 % of control
  Neurites per neuron, Number, Avg.: 2.90
[2]; tryptamine 10 μg/mL
  Neurite length per neuron, % of control, Avg.: 112.67 % of control
  Neurite length per neuron, Length (μm), Avg.: 386.86 μm
  Neurites per neuron, % of control, Avg.: 92.01 % of control
  Neurites per neuron, Number, Avg.: 3.07

## COc1cc(C[C@@H](C)N)c(OC)cc1I [(R)-2,5-dimethoxy-4-iodoamphetamine]
[4]
  inflammation in the lungs: prevent and reverse inflammation in the lungs
5-HT2A receptor
  activation of the 5-HT2A receptor: activate the 5-HT2A receptor

B1: BDNF: brain-derived neurotrophic factor, positive control at 50 ng/ml (protein, UniProt P23560 19-247, looked up)
Neurotrophic factor BDNF …: APMKEANIRGQGGLAYPGVRTHGTLESVNGPKAGSRGLTSLADTFEHVIEELLDEDQKVRPNEENNKDADLYTSRVMLSSQVPLEPPLLFLLEEYKNYLDAANMSMRVRRHSDPARRGELSVCDSISEWVTAADKKTAVDMSGGTVTVLEKVPVSKGQLKQYFYETKCNPMGYTKEGCRGIDKRHWNSQCRTTQSYVRALTMDSKKRIGWRFIRIDTSCVCTLTIKRGR
[2]; 50 ng/ml, positive control, one value per culture plate
  Neurites per neuron, Number, Avg.: 3.82
